The record followed here is article PMC11408123, “Deciphering the SAM- and metal-dependent mechanism of O-methyltransferases in cystargolide and belactosin biosynthesis: A structure–activity relationship study” (The Journal of Biological Chemistry, 2024).

The target of assay [1] is T1, CysG^ΔN16 (Kitasatospora cystarginea, UniProt A0A1W6R556).
T1 construct: N-terminal truncation lacking the first 16 residues, His6-SUMO tag removed, E. coli BL21(DE3); electron density for residues 17-229
Briefly: X-ray crystal structure, […] Å. Type of assay: binding. Conditions: with Ca2+ bound at His122-His123-Asp191; methyl donor site.

Assay [2] has as its target T2, CysG^ΔN16 (Kitasatospora cystarginea, UniProt A0A1W6R556, R22K).
T2 construct: N-terminal truncation lacking the first 16 residues, His6-SUMO tag removed, E. coli BL21(DE3); electron density for residues 17-229
In words: X-ray crystal structure. Type of assay: binding. Conditions: methyl donor site.

In assay [3] the target is T1, CysG^ΔN16. In words: HPLC-MS turnover assay, semi-quantitative. Type of assay: biochemical. Conditions: 1 mM substrate, 1 mM SAM, 5 μM enzyme, 20 mM divalent metal ion, 50 mM Tris-HCl, 30 °C, 3 h.
The target in a further assay is T3, CysG^fl (Kitasatospora cystarginea, UniProt A0A1W6R556).
T3 construct: full length, codon-optimised gene, N-terminal His6-SUMO tag removed, E. coli BL21(DE3)
In words: HPLC-MS turnover assay, semi-quantitative. Type of assay: biochemical. The following applies: 1 mM substrate, 1 mM SAM, 5 μM enzyme, 20 mM Ca2+, 50 mM Tris-HCl, 30 °C, 3 h.

Another assay has as its target T4, BelI (Streptomyces sp., UniProt A0A1W6R583).
T4 construct: full length, codon-optimised gene, N-terminal His6-SUMO tag removed, E. coli BL21(DE3); electron density for residues 17-228
Briefly: HPLC-MS turnover assay, semi-quantitative. Conditions: 1 mM substrate, 1 mM SAM, 5 μM enzyme, 20 mM Ca2+, 50 mM Tris-HCl, 30 °C, 3 h. Type of assay: biochemical.

Consider `Nc1ncnc2c1ncn2[C@@H]1O[C@H](CSCC[C@H](N)C(=O)O)[C@@H](O)[C@H]1O` [SAH], for which the “X-ray crystal structure, 1.5 Å” value on CysG^ΔN16 [1] is given as “crystal structures of CysG^ΔN16 in complex with S-adenosylhomocysteine (SAH)”.

For `C[S+](CC[C@H](N)C(=O)O)C[C@H]1O[C@@H](n2cnc3c(N)ncnc32)[C@H](O)[C@@H]1O` (some centres unmarked) [SAM], the X-ray crystal structure result on CysG^ΔN16 [2] is reported as “CysG^ΔN16-R22K variant (PDB ID: 9FCY) maintains SAM coordination”.

`CC(C)[C@H](C(=O)O)[C@@H](O)C(=O)O` [3IPM]: the “HPLC-MS turnover assay, semi-quantitative” value on CysG^ΔN16 [3] is “N-terminally truncated CysG^ΔN16 variant was active with metal ions available”; at CysG^fl, “The assay was started by the addition of 3IPM for CysG and 3SBM for BelI”.

In the case of `CCC(C)C(C(=O)O)C(O)C(=O)O` (centres unmarked) [3SBM], on BelI, the “HPLC-MS turnover assay, semi-quantitative” value was “The assay was started by the addition of 3IPM for CysG and 3SBM for BelI”.
